In data set [1] the test system is A375 human melanoma cancer cells. Description: Cell viability assay (CellTiter 96), A375. Conditions: treated for 4 days. The data set is classed as cell-based. Here is the method:
Cell viability assay. For determination of IC50 with cell proliferation assays, murine and human cancer cell lines were screened with 6-thio-dG with a 2-fold dilution series in 8 different points in 96-well plates. Cells were plated 24 hrs prior to the addition of drug, incubated for 4-5 days, and assayed using CellTiter 96® Aqueous One Solution Cell Proliferation Assay according to the manufacturer's instructions (Promega). Cell number per well ranged from 1,000 to 10,000 cells per well inversely proportional to doubling times. Dose response curves were generated and IC50s calculated using Graphpad Prism. All samples were analyzed in triplicate and standard deviations are from 2-3 independent experiments.

The test system of data set [2] is tumor infiltrating lymphocytes (TILs). Description: Flow cytometry of tumor infiltrating cells in MC38 tumor-bearing mice. In kind it is in vivo, mouse. Here is the method: Tumor digestion. Tumor tissues were excised and digested with 1 mg/mL Collagenase I (Sigma) and 0.5 mg/mL DNase I (Roche) in the 37° C. for 30 mins, tumor was then passed through a 70 μm cell strainer to remove large pieces of undigested tumor. Tumor infiltrating cells were washed twice with PBS containing 2 mM EDTA. Flow cytometry analysis. Single cell suspensions of cells were incubated with anti-FcγIII/II receptor (clone 2.4G2) for 15 minutes to block the non-specific binding before staining with the conjugated antibodies, and then incubated with indicated antibody for 30 mins at 4° C. in the dark. Fixable viability Dye eFlour 506 or eFlour780 (eBioscience) was used to exclude the dead cells. Foxp3 and Ki67 were stained intracellularly by using True-Nuclear transcription factor buffer set (BioLegend) following the manufacturer's instructions. Data were collected on CytoFLEX flow cytometer (Beckman Coulter, Inc) and analyzed by using FlowJo (Tree Star Inc., Ashland, OR) software.
(In general: In flow cytometry, cells or beads pass a laser one at a time.)

Another data set has as its system tumor-specific T cells. Kind of data set: IFN-γ ELISPOT of splenocytes / draining lymph node cells. Conditions: splenocytes re-stimulated with irradiated MC38 tumor cells 48 hrs; 3 mg/kg, days 7, 8, 9. In kind it is in vivo, mouse. On the procedure: IFN-γ enzyme-linked immunosorbent spot assay (ELISPOT). MC38 tumors were injected subcutaneously on the right flank of C57BL/6. For 6-thio-dG single treatment, 3 mg/kg 6-thio-dG was intraperitoneally given on days 7, 8 and 9; for PD-L1 blockade combination therapy in MC38 model, 3 mg/kg 6-thio-dG was given on day 10 and day 11, 50 μg PD-L1 was intraperitoneally injected on day 11. 7 days after last treatment, tumor draining lymphoid and spleen from tumor-bearing mice were collected and single-cell suspension was prepared. Irradiated MC38 tumor cells and control LLC tumor cells were used to re-stimulate the tumor-specific T cells. 1.5×10^5 draining lymph nodes cells or splenocytes and 7.5×10^4 irradiated tumor cells were co-cultured for 48 hrs, and ELISPOT assay was performed using the IFN-γ ELISPOT kit (BD Bioscience) according to the manufacturer's instructions. IFN-γ spots were enumerated with the CTL-ImmunoSpot® S6 Analyzer (Cellular Technology Limited).

The test system of the next data set is MC38 cells. Kind of data set: Telomere dysfunction Induced Foci (TIF) and micronuclei assays in cells. The data set is classed as cell-based, mouse. Here is the method: Telomere dysfunction Induced Foci (TIF) and micronuclei assays. The TIF assay is based on the co-localization detection of DNA damage by an antibody against DNA damage response factors such as gamma-H2AX, 53BP1, and antibody against telomeric proteins or telomeres using telomere sequence-specific peptide nucleic acid (PNA) probe (Mender and Shay, 2015). Briefly, cells were seeded into 4-well chamber slides. Next day, cells were treated with 1 μM 6-thio-dG for 24 hrs (for TIF assay) or 1-3 μM 6-thio-dG for 48 hrs (for micronuclei assay). Slides were then rinsed twice with PBS and fixed in 4% formaldehyde (Thermo Fisher) in PBS for 10 mins. Then, cells were washed twice with PBS and permeabilized in 0.5% Triton X-100 in PBS for 10 min. Following permeabilization, cells were washed three times with PBS. Cells were blocked with 10% goat serum in 0.1% PBST (TritonX-100) for 1 hr. Gamma-H2AX (TIF assay, mouse, 1:1000) (Millipore) or lamin A/C (micronuclei assay, mouse, 1:500) (Santa Cruz) was diluted in blocking solution and incubated on cells for 2 hrs. Following three washes with PBST (1×PBS in 0.1% Triton) and 3 washes with PBS, cells were incubated with Alexaflour 568 conjugated goat anti-mouse (1:500) (Invitrogen) for 40 mins, then washed five times with 0.1% PBST. Cells were fixed in 4% formaldehyde in PBS for 20 mins at RT. The slides were sequentially dehydrated with 70%, 90%, 100% ethanol followed by denaturation with hybridization buffer containing FAM-conjugated telomere sequence (C-rich)-specific PNA probe, 70% formamide, 30% 2×SSC, 10% (w/v) MgCl2·6H2O (Fisher Sci), 0.25% (w/v) blocking reagent for nucleic acid hybridization and detection (Roche) for 7 mins at 80° C. on a heat block, followed by overnight incubation at RT. Slides were washed sequentially with 70% formamide (Ambion)/0.6×SSC (Invitrogen) (2×1 hr), 2×SSC (1×15 mins), PBS (1×5 mins) and sequentially dehydrated with 70%, 90%, 100% ethanol, then mounted with Vectashield mounting medium with DAPI (Vector Laboratories). […] TIFs were quantified using Image J.

The mark [3] stands for this setting: 6 days after the last of three daily doses, 3 mg/kg.

As to `Nc1nc2c(ncn2[C@H]2C[C@H](O)[C@@H](CO)O2)c(=S)[nH]1` [6-thio-dG, 6-thio-2′-deoxyguanosine], in data set [1], the “sensitivity in vitro (cell viability)” value is listed as “sensitive”. Also, in data set [2] (3 mg/kg, days 7, 8, 9), the “Treg cells (CD4+ Foxp3+)” value is recorded as “no significant changes” and the “tumor infiltrating NK cells” value was “increased”. The “PD-1 expression on CD8+ T cells (frequency and per cell basis)” value in data set [2] (3 mg/kg, days 7, 8, 9, 7 days after first treatment) is “upregulated”. In addition, the “CD8+ T cell proliferation (Ki67 expression)” value in data set [2] (6 days after last treatment, 3 mg/kg) is reported as “significant upregulation”. Moreover, in data set [2] (setting [3]), the “frequency of CD3+ T cells in TILs” value was “increase” and the “frequency of CD8+ T cells in TILs” value was “increase”. Further, the “YFP+ T cells in the tumor” value in data set [2] (IFN-γ YFP reporter mice, eleven days after last treatment) is reported as “significantly increased”. Besides, the “tumor-specific (OVA tetramer) CD8+ T cells in tumors” value in data set [2] (MC38-OVA tumor model, 6 days after 6-thio-dG treatment) was “increased”. Moreover, the “tumor-specific cytotoxic T cell responses (IFN-γ producing T cells)” value in the data set with tumor-specific T cells was “enhanced”. Besides, the “interphase bridges between daughter cells during telophase” value in the data set on MC38 cells is “induced interphase bridges”. For the same molecule, the “telomere stress by TIF assay” value in the data set with MC38 cells (1 μM 6-thio-dG for 24 hrs) is “induced telomere damages”. Moreover, the micronuclei result in the data set with MC38 cells (1 μM 6-thio-dG, 48 hrs) is “induced micronuclei”.

Source of the values: patent US12097213B2, “Sequential treatment of cancers using 6-thio-dG, checkpoint inhibitors and radiation therapy” (The Board of Regents of the University of Texas System, priority 2020, dated 2024).
